The source of these data is patent publication US7541367B2, “3-benzoimidazolyl-pyrazolopyridines useful in treating kinase disorders” (Janssen Pharmaceutica, N.V., priority 2005, dated 2009).

Each structure is given as a SMILES string.

One assay deals with T1, VEGF-R2 (Rattus norvegicus, UniProt O08775).
T1 construct: polyhistidine (N)
Kind of assay: VEGF-R2 kinase screening assay (33P-ATP FlashPlate).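 Also: Read-out is ³³P incorporation from ³³P-γ-ATP into biotinylated peptide substrate captured on streptavidin FlashPlate, counted by scintillation, 1% DMSO final, inhibition scaled between per-plate maximum and minimum signals.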 In kind it is biochemical. Conditions: rat VEGF-R2 kinase domain; 10 μM ATP; 1 hr at 30° C.

The target of a further assay is T2, HER2 (Homo sapiens, UniProt P04626).
T2 construct: GST (Glutathione-S-Transferase) (N); HIS6 (N); thrombin cleavage site (N); purchased Proqinase, Freiburg, Germany
T2 sequence (P04626 679-1255): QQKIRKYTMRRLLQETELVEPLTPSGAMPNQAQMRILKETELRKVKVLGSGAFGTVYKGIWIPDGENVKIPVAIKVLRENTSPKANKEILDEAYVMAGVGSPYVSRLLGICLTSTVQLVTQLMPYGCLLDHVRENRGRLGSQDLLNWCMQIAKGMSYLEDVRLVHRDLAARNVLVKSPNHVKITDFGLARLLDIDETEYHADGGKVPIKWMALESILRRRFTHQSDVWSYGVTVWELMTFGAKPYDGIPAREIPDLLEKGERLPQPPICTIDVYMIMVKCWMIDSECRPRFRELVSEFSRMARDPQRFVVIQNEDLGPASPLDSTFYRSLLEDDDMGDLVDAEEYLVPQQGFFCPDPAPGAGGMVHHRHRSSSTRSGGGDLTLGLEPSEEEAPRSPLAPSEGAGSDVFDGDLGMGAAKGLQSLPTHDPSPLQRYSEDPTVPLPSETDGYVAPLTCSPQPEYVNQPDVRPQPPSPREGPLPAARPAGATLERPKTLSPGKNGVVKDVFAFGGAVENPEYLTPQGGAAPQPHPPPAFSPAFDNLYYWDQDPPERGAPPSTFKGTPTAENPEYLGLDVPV
Kind of assay: HER2 kinase screening assay (33P-ATP FlashPlate).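 Also: Biotin-poly(GT) 4:1 peptide captured on streptavidin FlashPlate, 33P transfer from γ-ATP read by scintillation counting, lower incorporation means inhibition, 1% DMSO final, 100 µL reaction.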 In kind it is biochemical. Conditions: GST-HIS6 HER-2 aa 679 to 1255; 10 μM ATP; 1 hr at 30° C.

Another assay has as its target T3, RET (Homo sapiens, UniProt P07949).
T3 construct: polyhistidine (N)
T3 sequence (P07949 658-1114 limits assumed): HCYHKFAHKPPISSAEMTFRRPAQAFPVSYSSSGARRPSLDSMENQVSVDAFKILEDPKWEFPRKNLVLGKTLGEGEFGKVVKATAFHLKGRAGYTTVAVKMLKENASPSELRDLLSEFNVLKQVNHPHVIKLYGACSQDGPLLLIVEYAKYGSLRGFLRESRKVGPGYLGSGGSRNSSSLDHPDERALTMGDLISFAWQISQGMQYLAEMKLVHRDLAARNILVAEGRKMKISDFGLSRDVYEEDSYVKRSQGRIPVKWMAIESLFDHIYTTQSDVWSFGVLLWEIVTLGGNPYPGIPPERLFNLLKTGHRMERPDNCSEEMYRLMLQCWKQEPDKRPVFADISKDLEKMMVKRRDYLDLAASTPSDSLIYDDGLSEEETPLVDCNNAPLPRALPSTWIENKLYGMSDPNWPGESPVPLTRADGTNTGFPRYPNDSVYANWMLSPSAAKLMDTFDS
As to the kind of experiment: RET kinase screening assay (33P-ATP FlashPlate).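 Also: biotinylated peptide substrate captured on streptavidin FlashPlate, 33P phosphate transfer read by scintillation counting, 1% DMSO, lower incorporation means inhibition, percent relative to per-plate maximum and minimum signals.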 Conditions: human RET kinase domain; 10 μM ATP; 1 hr at 30° C. In kind it is biochemical.

A further assay has as its target T4, c-Src kinase (Homo sapiens, UniProt P12931).
T4 construct: purchased Upstate Biotechnology, Lake Placid, N.Y
Kind of assay: c-Src Kinase Assay. Conditions: 5 μM ATP. In kind it is biochemical. The method, boiled down: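 Human c-Src phosphorylated Cdc2 peptide (100 μM) […]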

The target in another assay is T5, Lyn kinase (Homo sapiens, UniProt P07948).
T5 construct: purchased Upstate Biotechnology, Lake Placid, N.Y
T5 sequence (P07948 whole entry): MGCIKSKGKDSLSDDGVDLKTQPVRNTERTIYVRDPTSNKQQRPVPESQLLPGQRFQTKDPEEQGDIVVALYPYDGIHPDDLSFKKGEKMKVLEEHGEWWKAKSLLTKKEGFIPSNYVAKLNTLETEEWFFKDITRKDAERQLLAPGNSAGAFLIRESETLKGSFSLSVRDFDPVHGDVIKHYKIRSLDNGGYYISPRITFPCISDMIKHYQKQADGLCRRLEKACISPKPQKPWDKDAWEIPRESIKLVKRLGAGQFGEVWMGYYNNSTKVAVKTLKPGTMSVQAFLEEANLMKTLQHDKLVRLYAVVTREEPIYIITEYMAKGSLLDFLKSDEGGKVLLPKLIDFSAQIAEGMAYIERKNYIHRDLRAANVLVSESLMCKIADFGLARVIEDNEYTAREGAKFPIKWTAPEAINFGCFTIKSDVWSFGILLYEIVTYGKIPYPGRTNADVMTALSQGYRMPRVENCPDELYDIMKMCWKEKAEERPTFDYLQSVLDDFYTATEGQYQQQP
As to the kind of experiment: Lyn Kinase Assay. In kind it is biochemical. Conditions: 5 μM ATP. Put shortly: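 Recombinant human Lyn kinase in pH 7.5 Tris buffer with EGTA, vanadate, β-mercaptoethanol and BSA reacted with compound for 40 min at 30° C. The radiolabelled product was captured on P30 filtermats after phosphoric acid stop and counted by scintillation. IC50 came from percent inhibition versus log concentration, using plate maximum/minimum signals.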

Another assay deals with A375 malignant melanoma. Kind of assay: Cell Proliferation Inhibition Assay (14C-thymidine incorporation), A375.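 Also: proliferation measured by radiolabelled thymidine uptake into new DNA, counted in scintillating 96-well plates, compound-treated wells compared with DMSO-only control wells.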 Conditions: Homo sapiens, A-375, A375 cells. Type of assay: cell-based. In general terms: Uptake of a labelled nucleoside into DNA is a usual measure of proliferation.
The subject of the next assay is HCT-116 colon carcinoma. Kind of assay: Cell Proliferation Inhibition Assay (14C-thymidine incorporation), HCT-116.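 Also: proliferation measured as methyl 14C-thymidine uptake into new DNA, counted in 96-well scintillating microplates, compared with DMSO-only control wells.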 Type of assay: cell-based. Conditions: Homo sapiens, HCT-116, HCT-116 cells.
The test system of assay [1] is Human melanoma A375 cells. Kind of assay: In Vivo Models - Inhibition of Tumor Growth (A375 xenograft). Conditions: female athymic mice, 25 mg/kg i.p. daily. The protocol: The ability of test compounds to inhibit unregulated growth of human tumor cells in vivo was evaluated by implanting human tumor cells into the hindflank of athymic mice, administering a test compound and then quantifying any change in tumor size.
Certain compounds at particular doses produced adverse effects in this model. One skilled in the art would be able to establish the effective amount of compound required to achieve an effective therapeutic window.
Human melanoma A375 cells were implanted subcutaneously into the hindflank of female athymic mice (Charles River) and allowed to grow for 6-10 days. After a measurable tumor was established (as determined by baseline caliper measurement), the animal was administered an intraperitoneal (i.p.) dose of the test compound daily at 25 mg/kg for the length of the study. Tumor size was measured at certain intervals as shown in Table 5 and the degree of inhibition for a test compound was determined by comparing the reduction in tumor volume for drug-treated animals to that of untreated and vehicle-treated animals. The vehicle used was 20% hydroxypropyl β-cyclodextran.

T4 sequence (P12931 whole entry): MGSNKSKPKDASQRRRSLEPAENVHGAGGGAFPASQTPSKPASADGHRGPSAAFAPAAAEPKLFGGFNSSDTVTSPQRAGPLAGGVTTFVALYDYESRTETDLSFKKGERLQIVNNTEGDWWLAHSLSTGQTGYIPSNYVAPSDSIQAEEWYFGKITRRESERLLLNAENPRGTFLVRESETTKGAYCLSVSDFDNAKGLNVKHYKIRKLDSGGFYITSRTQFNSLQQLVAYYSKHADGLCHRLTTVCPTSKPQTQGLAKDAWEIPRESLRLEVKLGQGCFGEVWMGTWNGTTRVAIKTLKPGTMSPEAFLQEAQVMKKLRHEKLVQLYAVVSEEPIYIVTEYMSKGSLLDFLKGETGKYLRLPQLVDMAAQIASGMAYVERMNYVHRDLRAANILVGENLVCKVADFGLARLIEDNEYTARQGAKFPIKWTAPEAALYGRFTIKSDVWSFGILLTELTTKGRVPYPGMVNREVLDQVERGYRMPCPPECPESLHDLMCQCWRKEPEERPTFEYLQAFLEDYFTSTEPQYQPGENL
T1 sequence (O08775 786-1343): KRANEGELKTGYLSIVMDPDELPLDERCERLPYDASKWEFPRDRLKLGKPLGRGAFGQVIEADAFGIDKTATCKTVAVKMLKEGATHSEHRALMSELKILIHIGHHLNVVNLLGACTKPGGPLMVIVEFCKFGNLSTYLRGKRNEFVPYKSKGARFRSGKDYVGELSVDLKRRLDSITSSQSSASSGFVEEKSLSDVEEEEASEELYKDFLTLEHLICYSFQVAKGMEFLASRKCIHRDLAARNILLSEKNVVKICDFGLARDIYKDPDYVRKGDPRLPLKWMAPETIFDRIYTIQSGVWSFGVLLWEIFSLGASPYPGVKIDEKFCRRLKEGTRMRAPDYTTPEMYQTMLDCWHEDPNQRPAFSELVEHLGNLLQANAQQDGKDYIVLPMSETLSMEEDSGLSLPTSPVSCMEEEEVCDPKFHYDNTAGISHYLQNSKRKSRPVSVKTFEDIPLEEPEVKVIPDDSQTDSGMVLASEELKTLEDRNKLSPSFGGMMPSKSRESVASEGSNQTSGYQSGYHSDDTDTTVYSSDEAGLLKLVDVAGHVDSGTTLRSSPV

`CNCc1cncc(-c2cnc3[nH]nc(-c4nc5cc(OC(F)(F)F)ccc5[nH]4)c3c2)c1` [Cpd 96, methyl-{5-[3-(5-trifluoromethoxy-1H-benzoimidazol-2-yl)-1H-pyrazolo[3,4-b]pyridin-5-yl]-pyridin-3-ylmethyl}-amine]: the half-maximal inhibitory concentration (IC50) (as a rule, the concentration at which inhibition is half-maximal) at VEGF-R2 was over 100 nM; against HER2, 3820 nM; on RET, over 100000 nM; on c-Src kinase, 31.2 nM; against Lyn kinase it was 8.38 nM; with A375 malignant melanoma it was 47.1 nM. In addition, half-maximal inhibition in the assay on HCT-116 colon carcinoma (IC50) required 55.5 nM. In addition, the results for the Tumor volume in assay [1] (Day 1) and in assay [1] (Day 4) were 95.4 mm^3 and 68.3 mm^3, respectively.

On to `CCNCc1cncc(-c2cnc3[nH]nc(-c4nc5cc(OC)ccc5[nH]4)c3c2)c1` [Cpd 101, ethyl-{5-[3-(5-methoxy-1H-benzoimidazol-2-yl)-1H-pyrazolo[3,4-b]pyridin-5-yl]-pyridin-3-ylmethyl}-amine], for which the IC50 against VEGF-R2 is over 100 nM; at HER2 it was 4170 nM; against RET, about 1000 nM; against c-Src kinase it was 8.85 nM; against Lyn kinase, 2.54 nM; in the assay on A375 malignant melanoma, 101 nM. In the assay on HCT-116 colon carcinoma, this compound yielded an IC50 of 48.7 nM. In addition, the Tumor volume in assay [1] (Day 1) amounted to 95.4 mm^3; in assay [1] (Day 4) it was 128 mm^3; in assay [1] (Day 8), 354.1 mm^3; in assay [1] (Day 11), 632.3 mm^3; in assay [1] (Day 14), 988.7 mm^3.
